Test results published in the NIST ThermoML archive (doi:10.1021/acs.jced.8b00723).
± gives the expanded uncertainty stated by the source.

Experiment: an = ratio of the nth substance listed
Conditions: 308.15 K, 100 kPa, Liquid; for speed of sound: Single path-length method; for mass density: Vibrating tube method

Structure (SMILES)	speed of sound (a1 = 0.05) [m/s]	speed of sound (a1 = 0.075) [m/s]	speed of sound (a1 = 0.1) [m/s]	mass density (a1 = 0.05) [kg/m3]	mass density (a1 = 0.075) [kg/m3]	mass density (a1 = 0.1) [kg/m3]	speed of sound (a1 = 0.15) [m/s]	mass density (a1 = 0.15) [kg/m3]
CC(C)O [propan-2-ol] + O	1551.7 ± 0.6	1566.2 ± 0.6	1569.7 ± 0.6	993.1 ± 10	991.8 ± 10	987.6 ± 10		
CO [methanol] + O	1533.2 ± 0.5		1543.5 ± 0.5	988.6 ± 10		980.6 ± 10	1566.7 ± 0.5	971 ± 10
CCO [ethanol] + O	1542.9 ± 0.6		1559.2 ± 0.6	990.6 ± 10		982.8 ± 10	1590.4 ± 0.6	971.7 ± 10
